Assay results as given in patent publication US20050197350A1, “Novel quinoline, tetrahydroquinazoline, and pyrimidine derivatives and methods of treatment related to the use thereof” (TAISHO PHARMACEUTICAL CO., LTD., priority 2003, published 2005).

These molecules were tested on MCH receptors (assay: MCH receptor activity class (method not given)). Conditions: not given.

class	Compound
1	Cc1cc(N[C@H]2CC[C@@H](NC(=O)c3cc(C(F)(F)F)cc(C(F)(F)F)c3)CC2)nc2ccccc12 [Example 2548, N-{cis-4-[(4-methylquinolin-2-yl)amino]cyclohexyl}-3,5-bis(trifluoromethyl)benzamide]

Same assay, conditions: MCH receptor activity class 1-3 (percent of control at 10^-7 M or IC50)

Compound	class
CCc1cccc(C)c1NC(=O)NC[C@H]1CC[C@@H](Nc2nccc(N(C)C)n2)CC1 [compound 2408, N-[(cis-4-{[4-(dimethylamino)pyrimidin-2-yl]amino}cyclohexyl)methyl]-N′-(2-ethyl-6-methylphenyl)urea]	1 (Class 1: The value of percent of control at 10^−7 M was less than 40% or the value of IC50 was less than 50 nM.)

Same assay, conditions: MCH receptor; class by percent of control at 10^-7 M or IC50

Compound	class
CN(C)c1nc(N[C@H]2CC[C@@H](NC(=O)NC3c4ccccc4-c4ccccc43)CC2)nc2c1CCCC2 [compound 1905]	3 (Class 3 The value of percent of control at 10^−7 M was more than 60% or the value of IC50 was more than 200 nM.)
COc1ccc(OC)c(NC(=S)N[C@H]2CC[C@@H](Nc3nc4c(c(N(C)C)n3)CCCC4)CC2)c1 [compound 1973]	3 (Class 3 The value of percent of control at 10^−7 M was more than 60% or the value of IC50 was more than 200 nM.)
CN(C)c1cc(N[C@H]2CC[C@@H](NC(=O)c3ccc([N+](=O)[O-])cc3Cl)CC2)nc2ccccc12 [compound 102]	3 (Class 3 The value of percent of control at 10^−7 M was more than 60% or the value of IC50 was more than 200 nM.)
CN(C)c1nc(N[C@H]2CC[C@@H](NC(=S)NC3CCCC3)CC2)nc2c1CCCC2 [compound 1932]	3 (Class 3 The value of percent of control at 10^−7 M was more than 60% or the value of IC50 was more than 200 nM.)
CN(C)c1nc(N[C@H]2CC[C@@H](NC(=S)Nc3ccccc3OC(F)F)CC2)nc2c1CCCC2 [compound 1976]	3 (Class 3 The value of percent of control at 10^−7 M was more than 60% or the value of IC50 was more than 200 nM.)
Cc1cc(NC(=S)N[C@H]2CC[C@@H](Nc3nc4c(c(N(C)C)n3)CCCC4)CC2)ccc1Br [compound 2047]	3 (Class 3 The value of percent of control at 10^−7 M was more than 60% or the value of IC50 was more than 200 nM.)
CN(C)c1nc(N[C@H]2CC[C@@H](NC(=S)Nc3cccc(SC(F)(F)F)c3)CC2)nc2c1CCCC2 [compound 1980]	3 (Class 3 The value of percent of control at 10^−7 M was more than 60% or the value of IC50 was more than 200 nM.)

Same assay, conditions: activity class 1-3: percent of control at 10^-7 M or IC50

Compound	class
CC(NC(=O)N[C@H]1CC[C@@H](Nc2nc3c(c(N(C)C)n2)CCCC3)CC1)c1cccc2ccccc12 (relative stereo) [compound 1704]	1 (Class 1: The value of percent of control at 10^−7 M was less than 40% or the value of IC50 was less than 50 nM.)
COC(CNC1CCC(Nc2nccc(N(C)C)n2)CC1)c1ccccc1 (stereo not shown) [compound 1517]	3 (Class 3 The value of percent of control at 10^−7 M was more than 60% or the value of IC50 was more than 200 nM.)
CN(C)c1ccnc(N[C@H]2CC[C@@H](NCCOc3ccccc3Cl)CC2)n1 [compound 1515]	3 (Class 3 The value of percent of control at 10^−7 M was more than 60% or the value of IC50 was more than 200 nM.)
COc1ccccc1OC(=O)N[C@H]1CC[C@@H](Nc2cc(N(C)C)c3ccccc3n2)CC1 [compound 1544]	3 (Class 3 The value of percent of control at 10^−7 M was more than 60% or the value of IC50 was more than 200 nM.)
CN(C)c1nc(N[C@H]2CC[C@@H](CNC(=O)Oc3ccc4ccccc4c3)CC2)nc2c1CCCC2 [compound 1609]	3 (Class 3 The value of percent of control at 10^−7 M was more than 60% or the value of IC50 was more than 200 nM.)

Same assay, conditions: activity class per percent of control at 10^-7 M or IC50

Compound	class
Cc1ccc(C(=O)CC(C(=O)N[C@H]2CC[C@@H](Nc3nc4c(c(N(C)C)n3)CCCC4)CC2)c2cn(C)c3ccccc23)cc1 (relative stereo) [compound 998]	2 (Class 2: The value of percent of control at 10^−7 M was from 40% to 60% or the value of IC′50 was from 50 nM to 200 nM.)

Same assay, conditions: class by percent of control at 10^-7 M or IC50

Compound	class
C[C@H](C(=O)N[C@H]1CC[C@@H](Nc2cc(N(C)C)c3ccccc3n2)CC1)c1ccc(-c2ccccc2)c(F)c1 [compound 740]	3 (Class 3 The value of percent of control at 10^−7 M was more than 60% or the value of IC50 was more than 200 nM.)
CCOc1cc(CNC[C@H]2CC[C@@H](Nc3cc(N(C)C)c4ccccc4n3)CC2)ccc1O [compound 1159]	3 (Class 3 The value of percent of control at 10^−7 M was more than 60% or the value of IC50 was more than 200 nM.)
COc1ccc(CNC[C@H]2CC[C@@H](Nc3cc(N(C)C)c4ccccc4n3)CC2)cc1OC [compound 1193]	3 (Class 3 The value of percent of control at 10^−7 M was more than 60% or the value of IC50 was more than 200 nM.)
COc1ccccc1NC(=S)N[C@H]1CC[C@@H](Nc2nc3c(c(N(C)C)n2)CCCC3)CC1 [compound 1743]	3 (Class 3 The value of percent of control at 10^−7 M was more than 60% or the value of IC50 was more than 200 nM.)
CN(C)c1ccnc(N[C@H]2CC[C@@H](NC(=O)Nc3ccccc3I)CC2)n1 [compound 2198]	3 (Class 3 The value of percent of control at 10^−7 M was more than 60% or the value of IC50 was more than 200 nM.)
Cc1c(Cl)cccc1NC(=O)N[C@H]1CC[C@@H](Nc2cc(N(C)C)c3ccccc3n2)CC1 [compound 2115]	3 (Class 3 The value of percent of control at 10^−7 M was more than 60% or the value of IC50 was more than 200 nM.)
COc1cc(OC)c(NC(=O)N[C@H]2CC[C@@H](Nc3nc4c(c(N(C)C)n3)CCCC4)CC2)cc1Cl [compound 1727]	1 (Class 1: The value of percent of control at 10^−7 M was less than 40% or the value of IC50 was less than 50 nM.)
CN(C)c1cc(N[C@H]2CC[C@@H](NC(=O)c3ccc(C(F)(F)F)c(F)c3)CC2)nc2ccccc12 [compound 772, N-(cis-4-{[4-(dimethylamino)quinolin-2-yl]amino}cyclohexyl)-3-fluoro-4-(trifluoromethyl)benzamide]	1 (Class 1: The value of percent of control at 10^−7 M was less than 40% or the value of IC50 was less than 50 nM.)
C[C@@H](CNC[C@H]1CC[C@@H](Nc2nc3c(c(N(C)C)n2)CCCC3)CC1)N(Cc1ccccc1)Cc1ccccc1 [compound 1509]	3 (Class 3 The value of percent of control at 10^−7 M was more than 60% or the value of IC50 was more than 200 nM.)
CCc1cccc(C(C)C)c1NC(=O)N[C@H]1CC[C@@H](Nc2cc(N(C)C)c3ccccc3n2)CC1 [compound 2106, N-(cis-4-{[4-(dimethylamino)quinolin-2-yl]amino}cyclohexyl)-N′-(2-ethyl-6-isopropylphenyl)urea]	2 (Class 2: The value of percent of control at 10^−7 M was from 40% to 60% or the value of IC′50 was from 50 nM to 200 nM.)
CN(C)c1ccnc(N[C@H]2CC[C@@H](CNC(=O)CC3=CCCCC3)CC2)n1 [compound 943]	3 (Class 3 The value of percent of control at 10^−7 M was more than 60% or the value of IC50 was more than 200 nM.)
Cc1ccc(S(=O)(=O)n2ccc(C(=O)N[C@H]3CC[C@@H](Nc4nccc(N(C)C)n4)CC3)c2)cc1 [compound 901, N-(cis-4-{[4-(dimethylamino)pyrimidin-2-yl]amino}cyclohexyl)-1-[(4-methylphenyl)sulfonyl]-1H-pyrrole-3-carboxamide]	2 (Class 2: The value of percent of control at 10^−7 M was from 40% to 60% or the value of IC′50 was from 50 nM to 200 nM.)
CN(C)c1cc(N[C@H]2CC[C@@H](NC(=O)COc3c(Cl)cc(Cl)cc3Cl)CC2)nc2ccccc12 [compound 747]	2 (Class 2: The value of percent of control at 10^−7 M was from 40% to 60% or the value of IC′50 was from 50 nM to 200 nM.)
Cc1ccc(S(=O)(=O)N[C@H](CN[C@H]2CC[C@@H](Nc3cc(N(C)C)c4ccccc4n3)CC2)Cc2ccccc2)cc1 [compound 1456]	3 (Class 3 The value of percent of control at 10^−7 M was more than 60% or the value of IC50 was more than 200 nM.)
COc1ccc(CNC[C@H]2CC[C@@H](Nc3nc4c(c(N(C)C)n3)CCCC4)CC2)c2ccccc12 [compound 1368]	2 (Class 2: The value of percent of control at 10^−7 M was from 40% to 60% or the value of IC′50 was from 50 nM to 200 nM.)
Cc1cc(C(=O)NC[C@H]2CC[C@@H](Nc3nc4c(c(N(C)C)n3)CCCC4)CC2)ccc1Br [compound 619]	3 (Class 3 The value of percent of control at 10^−7 M was more than 60% or the value of IC50 was more than 200 nM.)
COc1ccc(NC(=O)N[C@H]2CC[C@@H](Nc3nccc(N(C)C)n3)CC2)cc1OC [compound 2240]	3 (Class 3 The value of percent of control at 10^−7 M was more than 60% or the value of IC50 was more than 200 nM.)
CN(C)c1cc(N[C@H]2CC[C@@H](CNC(=O)C3c4ccccc4Oc4ccccc43)CC2)nc2ccccc12 [compound 810]	3 (Class 3 The value of percent of control at 10^−7 M was more than 60% or the value of IC50 was more than 200 nM.)

Same assay, conditions: class by percent of control at 10^−7 M or IC50

Compound	class
Cc1cnc(NC[C@H]2CC[C@@H](NC(=O)c3ccc(C#N)cc3)CC2)nc1N(C)C [compound 2723]	3 (Class 3 The value of percent of control at 10^−7 M was more than 60% or the value of IC50 was more than 200 nM.)
Cc1cc(N(C)C)nc(N[C@H]2CC[C@@H](NC(=O)c3ccc(OC(F)(F)F)cc3)CC2)n1 [compound 2989, N-(cis-4-{[4-(dimethylamino)-6-methylpyrimidin-2-yl]amino}cyclohexyl)-4-(trifluoromethoxy)benzamide]	3 (Class 3 The value of percent of control at 10^−7 M was more than 60% or the value of IC50 was more than 200 nM.)
Cc1ccc(C(=O)N[C@H]2CC[C@@H](Nc3ncc(C)c(N(C)C)n3)CC2)cc1 [compound 2939, N-(cis-4-{[4-(dimethylamino)-5-methylpyrimidin-2-yl]amino}cyclohexyl)-4-methylbenzamide]	1 (Class 1: The value of percent of control at 10^−7 M was less than 40% or the value of IC50 was less than 50 nM.)
Cc1cnc(N[C@H]2CC[C@@H](NC(=O)c3ccc(F)cc3F)CC2)nc1N(C)C [compound 2901, N-(cis-4-{[4-(dimethylamino)-5-methylpyrimidin-2-yl]amino}cyclohexyl)-2,4-difluorobenzamide]	1 (Class 1: The value of percent of control at 10^−7 M was less than 40% or the value of IC50 was less than 50 nM.)
